Measurements: patent publication US20240067677A1, “Interference Peptides As Inhibitors Of Interactions Related To Ampar Endocytosis” (priority 2020, published 2024)
Changes are numbered by the printed parent chain. Entries after “also recorded” stand apart in the source; their conditions may differ. Square brackets hold non-standard residues; d marks the D form. Ends that are not written are not given here. pY = N[C@@H](Cc1ccc(OP(=O)(O)O)cc1)C(=O)O

Tests used:
[1] = tested on: scopolamine (0.7 mg/kg)-treated rats; experiment: Y-maze test, scopolamine-induced cognitive impairment; conditions: peptide 15 μM; Sco 0.7 mg/kg
Procedure: (§1) At the beginning of the experiment, there have been selected 30 adult male rats (Cantacuzino Institute™, Romania) having an average weight of 350 g (±10 g) and four months old. The animals were housed in the animal unit under controlled conditions of light (a 12-h cycle starting at 07:00 h) and temperature (22° C.). Food and water were provided ad libitum throughout the experiment. Rats were randomly divided into 6 groups (n=5 animals/group) as follows: Control group (sham-operated), Scopolamine (Sco) group (sham-operated, Sco: 0,7 mg/kg b.w., i.p., Sigma-Aldrich™, Darmstadt, Germany), and groups treated with TAT-p3Y, TAT-3Y, TAT-p3Ysh3, and TAT-pfin4 (15pIVI, GenScript™) received scopolamine. […] Scopolamine hydrobromide (Sco, 0.7 mg/kg) was administered 30 min before behavioral in vivo approaches.
(§2) All surgical procedures were conducted under aseptic conditions, under sodium pentobarbital (50 mg/kg b.w., i.p., Sigma-Aldrich™, Darmstadt, Germany) anesthesia. Rats were mounted in the stereotaxic apparatus with the nose oriented 11° below horizontal zero plane. Two plastic guide cannulas (Portex™, 0.9 mm outer diameter) were bilaterally implanted stereotaxically in the dorsal hippocampus according to the following coordinates: A/P=3.6 mm, M/L=3.1 mm and D/V=2.4 mm. The cannulas were positioned with dental cement (Adhesor™ SpofaDental™) and secured by three stainless steel screw implanted into the skull. After surgery, the rats were isolated in separate cages and protected with a large spectrum antibiotic. Animals were given two weeks to recover from surgery and were handled daily during this period.
Spontaneous alternation behavior was evaluated in a single-session Y-maze, as previously described by Jackson Postu et al [63]. In the present study, the Y-maze used was built of Plexiglas having the following dimensions: 25 cm high, 35 cm long, 10 cm wide for each arm, and a central area in an equilateral triangular shape. […] The percentage of the involuntary alternation was determined according to the formula:

[2] = biological target: T1, GST-GluA2-STEP32 C/S complex (Homo sapiens, UniProt P54829, C496S); experiment: GST-GluA2-STEP32 pulldown (SDS-PAGE / western blot); format: binding
T1 construct: made in house; host or cells: STEP32 C/S: E. coli BL21(DE3); GST-GluA2: E. coli BL21
T1 sequence (P54829 282-563 C496S): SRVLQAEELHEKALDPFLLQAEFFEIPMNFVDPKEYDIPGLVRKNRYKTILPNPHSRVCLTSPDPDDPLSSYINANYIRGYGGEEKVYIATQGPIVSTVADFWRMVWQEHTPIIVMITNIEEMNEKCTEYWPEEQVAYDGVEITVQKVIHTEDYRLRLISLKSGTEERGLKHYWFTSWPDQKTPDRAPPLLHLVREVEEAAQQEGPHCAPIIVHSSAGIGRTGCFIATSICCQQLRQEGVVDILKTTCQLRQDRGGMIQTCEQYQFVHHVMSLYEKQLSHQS
Procedure: Prior to binding and after contacting the beads with phosphorylated GST-GluA2, the beads were washed thoroughly with interaction buffer (25 mM HEPES, 150 mM NaCl, 1 mM MgCl2, 1% Triton™ X-100, 1 mM DTT, pH=7,5). Triton™ X-100 was used to avoid nonspecific binding and to minimize the risk of precipitation for any of the proteins. […] Beads were washed twice with wash buffer to remove excess STEP32 C/S. Results were analyzed using SDS-PAGE (FIG. 2A).

[3] = tested on: scopolamine (0.7 mg/kg)-treated rats; experiment: Radial arm-maze test, scopolamine-induced cognitive impairment; conditions: for number of working memory errors vs. scopolamine-alone treated rats: peptide 15 μM into dorsal hippocampus; for number of working memory errors vs. scopolamine-alone treated rats / number of reference memory errors vs. scopolamine-alone treated rats: Sco 0.7 mg/kg; for number of reference memory errors vs. scopolamine-alone treated rats: peptide 15 μM
Procedure: as §1, §2
As described before by Olton and Samuelson and Postu et al [63], using a radial arm maze test (RAM), the spatial memory was determined for one week.
The maze comprised eight arms marked from 1 to 8 (48 cm×12 cm), with a radial extension of 32 cm in diameter from the central area, and it had 50 mg food pellets at the end of arms 1, 2, 4, 5, and 7. Four days of habituation sessions were performed. Rats were instructed to move to the end of the arms and to eat the bait during 5 min sessions. After habituation, only one trial per day was granted to all rats. For working and reference memory tasks, each rat was individually placed in the center of the maze.

[4] = tested on: scopolamine (0.7 mg/kg)-treated rats; experiment: Elevated plus-maze test; conditions: for number of entries in the open arms vs. Sco-alone treated rats / percentage of the open arms time vs. scopolamine-alone treated rats: peptide 15 μM, Sco 0.7 mg/kg
Procedure: At the beginning of the experiment, there have been selected 30 adult male rats (Cantacuzino Institute™, Romania) having an average weight of 350 g (±10 g) and four months old. The animals were housed in the animal unit under controlled conditions of light (a 12-h cycle starting at 07:00 h) and temperature (22° C.). Food and water were provided ad libitum throughout the experiment. […] Scopolamine hydrobromide (Sco, 0.7 mg/kg) was administered 30 min before behavioral in vivo approaches.
as §2
Behavior in the elevated plus-maze test (E.P.M.) is utilized to assess exploration, anxiety and motor behavior. Each rat was placed in the center of the maze facing one closed arm. […] The percentages of time spent in the open arms were calculated using the formula:
(time spent in the open arms/time spent in all arms)×100. • Forced Swimming Test

[5] = tested on: scopolamine (0.7 mg/kg)-treated rats; experiment: Forced swimming test
Procedure: At the beginning of the experiment, there have been selected 30 adult male rats (Cantacuzino Institute™, Romania) having an average weight of 350 g (±10 g) and four months old. The animals were housed in the animal unit under controlled conditions of light (a 12-h cycle starting at 07:00 h) and temperature (22° C.). Food and water were provided ad libitum throughout the experiment. Rats were randomly divided into 6 groups (n=5 animals/group) as follows: Control group (sham-operated), Scopolamine (Sco) group (sham-operated, Sco: 0,7 mg/kg b.w., i.p., Sigma-Aldrich™, Darmstadt, Germany), and groups treated with TAT-p3Y, TAT-3Y, TAT-p3Ysh3, and TAT-pfin4 (15pIVI, GenScript™) received scopolamine. The doses of the peptides were chosen according to a previous report [60]. Scopolamine hydrobromide (Sco, 0.7 mg/kg) was administered 30 min before behavioral in vivo approaches. […]
The forced swimming test (F.S.T.) is used for assessing depressive-like responses [66]. The depressive-like response was assessed, basically using the same method described by Campos
et al. [67], but with modifications. […] During the test session, the following behavioral responses were recorded: (i) immobility (time spent floating with the minimal movements to keep the head above the water); and (ii) swimming (time spent with active swimming movements). • Statistical Analyses

[6] = biological target: T2, STEP32 WT (Homo sapiens, UniProt P54829); experiment: In vitro dephosphorylation of pY876 of full length GluA2 by STEP32 WT (western blot)
T2 sequence (P54829 282-563): T1 sequence (P54829 282-563 C496S) with S215C
Excerpt: GluA2-FL phosphorylated at Y876 site was immunoprecipitated from HEK293T cells overexpressing GluA2 and vSrc using anti-GluA2 antibodies and then submitted to in vitro dephosphorylation by purified STEP32 WT, in presence versus absence of TAT-phosphopeptides: TAT-p3Y, TAT-p3Y-sh3 and TAT-p-fin4. The dephosphorylation of the pY876 site of GluA2 FL was detected by western blotting using anti-pY876 antibodies and anti-GluA2 antibodies.
The results represent mean±SEM of three independent experiments.
Therefore, HEK293 cells were transfected with a pCMV-SPORT6-GRIA2 mammalian expression vector containing the cDNA of full length GluA2 (GluA2-FL). […] A sample consisting of immunoprecipitated GluA2 FL untreated with either STEP32 or peptides was also included into the study, as a control.

[7] = biological target: T3, BRAG2-GluA2 complex (Homo sapiens, UniProt Q6DN90, E620K); experiment: BRAG2-GluA2 pulldown with GSH Sepharose-coupled GST-GluA2 (SDS-PAGE); format: binding
T3 construct: GST-GluA2: E. coli BL21
Procedure: A. SDS-PAGE gel of the species pulled down with GSH Sepharose-coupled GST-GluA2. On the first lane, only BRAG2 was present in the solution containing the beads. On lanes 2-4 the BRAG2 solution also contained 1 mM of different peptides. B. BRAG2 band intensities from A. normalized to the GS T-GluA2 band intensities.
Samples containing GST-GluA2 (150 μg) and BRAG2 (60 μg) were bound to Sepharose glutathione beads (20 μl). Prior to binding, the beads were washed thoroughly with interaction buffer (25 mM HEPES, 150 mM NaCl, 1 mM MgCl2, 1% Triton™ X-100, 1 mM DTT, pH=7.5). Triton™ X-100 was used to avoid nonspecific binding and to minimize the risk of protein precipitation. In a subsequent step, 3Y at different concentrations was added to the samples (1000 μM, 100 μM, 10 μM, 1 μM, 0.1 μM). A 2.5 mM solution (0.1 M PBS pH=7.4) was obtained. After incubating the samples for 90 minutes at 4 ° C. with stirring, the beads were washed with a buffer containing less Triton X-100 (25 mM HEPES, 150 mM NaCl, 1 mM MgCl2, 0.1% Triton™ X-100.1 mM DTT, pH=7.5). The species which remained trapped by the beads were analyzed by SDS-PAGE (FIG. 16).

T3 sequence (Q6DN90 with tags, fused parts or gaps E620K): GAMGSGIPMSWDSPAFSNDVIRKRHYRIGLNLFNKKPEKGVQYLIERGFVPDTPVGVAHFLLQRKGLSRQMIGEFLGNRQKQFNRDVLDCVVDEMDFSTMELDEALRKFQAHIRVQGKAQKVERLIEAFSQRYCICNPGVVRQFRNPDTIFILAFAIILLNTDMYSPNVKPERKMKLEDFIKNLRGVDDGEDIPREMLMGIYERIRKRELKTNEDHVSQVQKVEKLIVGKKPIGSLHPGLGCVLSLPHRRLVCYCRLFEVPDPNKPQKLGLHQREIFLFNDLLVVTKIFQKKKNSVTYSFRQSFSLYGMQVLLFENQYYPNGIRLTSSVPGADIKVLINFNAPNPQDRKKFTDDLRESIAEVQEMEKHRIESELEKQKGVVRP

Substance: (TAT-)p3Y-sh3: p3Ysh-3 (EGYNVpY) N-terminally fused to the TAT cell-penetrating sequence (GRKKRRQRRRPQEGYNV[pY])
- spontaneous alternation percentage / working memory vs. scopolamine alone [1]: successfully countered the effect of scopolamine on working-memory
- inhibition of formation of the GST-GluA2-STEP32 C/S complex [2]: significantly inhibit the interaction
- number of working memory errors vs. scopolamine-alone treated rats [3]: significant reduction in the number of working memory errors
- number of reference memory errors vs. scopolamine-alone treated rats [3]: significant reduction in the number of reference memory errors
- number of entries in the open arms vs. Sco-alone treated rats [4]: high number of entries in the open arms
- percentage of the open arms time vs. scopolamine-alone treated rats [4]: high percentage of the open arms time

Substance: (TAT-)p3Y: p3Y N-terminally fused to the TAT cell-penetrating sequence GRKKRRQRRRPQ [reference compound]
- spontaneous alternation percentage / working memory vs. scopolamine alone [1]: successfully countered the effect of scopolamine on working-memory
- inhibition of formation of the GST-GluA2-STEP32 C/S complex [2]: significantly inhibit the interaction
- p, Sco vs. peptide, number of reference memory errors ([3]; 15 μM, Tukey's post hoc, n=5, FIG. 10): < 0.01
- number of working memory errors vs. scopolamine-alone treated rats [3]: significant reduction in the number of working memory errors
- p, Sco vs. peptide, immobility time ([5]; 15 μM, Tukey's post hoc, n=5, FIG. 12): < 0.0001
- immobility time ([5]; peptide 15 μM, Sco 0.7 mg/kg): significant decline of the immobility time

Substance: (TAT-)p-fin 4: p-fin4 (EGYNVpYE) N-terminally fused to the TAT cell-penetrating sequence (GRKKRRQRRRPQEGYNV[pY]E)
- spontaneous alternation percentage / working memory vs. scopolamine alone [1]: successfully countered the effect of scopolamine on working-memory
- inhibition of formation of the GST-GluA2-STEP32 C/S complex [2]: strongest inhibitory effect; also recorded: significantly inhibit the interaction
- number of working memory errors vs. scopolamine-alone treated rats [3]: significant reduction in the number of working memory errors
- number of reference memory errors vs. scopolamine-alone treated rats [3]: significant reduction in the number of reference memory errors
- inhibition of pY876 GluA2-FL dephosphorylation by STEP32 WT ([6]; 0.1 mM and 1 mM peptide): highest inhibition of GluA2 dephosphorylation
- P, no peptide sample vs. peptide + STEP32 WT sample, pY876 band intensity ([6]; 1 mM peptide, unpaired t-test with Welch's correction): < 0.05
- number of entries in the open arms vs. Sco-alone treated rats [4]: high number of entries in the open arms
- percentage of the open arms time vs. scopolamine-alone treated rats [4]: high percentage of the open arms time

Substance: ATYKEGYNVYG (not fully specified (residue 10)) [3Y, reference compound]
- disruption of the BRAG2-GluA2 complex ([7]; 3Y in the range of concentrations 10 μM-1 mM): successfully disrupts the BRAG2-GluA2 complex
- p, Sco vs. peptide, open arms time % ([4]; 15 μM, Tukey's post hoc, n=5, FIG. 13): < 0.001

Substance: EGYNVY (Interference peptide capable of inhibiting the formation/disrupting the STEP-GluA2 complex or the GluA2-BRAG2 complex) [3Y-sh3, (uncoupled) novel 3Y-sh3 peptide, non-phosphorylated hexapeptide]
- effect on the GST-GluA2-BRAG2 complex ([7]; 1 mM peptide (FIG. 17)): significant disrupting effect
